Measured values taken from PubChem BioAssay AID300 (DTP/NCI, 2004).
Inconclusive results are not listed. Rule for the calls: active = survival T/C of 150% or more; inactive = T/C below 125% in these data.

System: Madison 109 lung carcinoma i.m., mice, median survival
Test: NCI In Vivo Anticancer Drug Screen. Data for tumor model Madison 109 Lung Carcinoma (intramuscular) in unknown mice
Settings: endpoint: median survival time, higher = longer survival
Procedure: The antitumor activity of compounds was measured in mice bearing transplantable tumors. Survival or tumor size were measured and the results are expressed as the measurement made in the treated group (T) divided by the measurement made in the vehicle treated control group (C). The tumor model used in this assay is Madison 109 Lung Carcinoma (intramuscular) in unknown mice

[1] = dose: 3.0 mg/kg/injection, schedule: Q01DX009 (ip), vehicle: water
[2] = dose: 6.0 mg/kg/injection, schedule: Q01DX009 (ip), vehicle: water
[3] = dose: 1.0 mg/kg/injection, schedule: Q01DX009 (ip), vehicle: saline

Measured: T/C

CC1OC(O[C@H]2/C=C/C=C/C=C/C=C/C=C/C=C/C=C/[C@H](C)[C@@H](O)[C@@H](C)[C@H](C)OC(=O)C[C@H](O)C[C@H](O)CC[C@@H](O)[C@H](O)C[C@H](O)C[C@]3(O)C[C@H](O)[C@@H](C(=O)O)[C@H](C2)O3)C(O)C(N)C1O (stereo partly drawn)
inactive: dose: 6.25 mg/kg/injection, schedule: Q01DX009 (ip), vehicle: saline with Tween-80 108 % of control | dose: 12.5 mg/kg/injection, schedule: Q01DX009 (ip), vehicle: saline with Tween-80 118 % of control | dose: 25.0 mg/kg/injection, schedule: Q01DX009 (ip), vehicle: saline with Tween-80 88 % of control | dose: 50.0 mg/kg/injection, schedule: Q01DX009 (ip), vehicle: saline with Tween-80 110 % of control | dose: 100.0 mg/kg/injection, schedule: Q01DX009 (ip), vehicle: saline with Tween-80 93 % of control

CC[C@H]1CN2CCc3cc(OC)c(OC)cc3[C@@H]2C[C@@H]1C[C@H]1NCCc2cc(OC)c(OC)cc21
inactive: dose: 2.0 mg/kg/injection, schedule: Q01DX009 (ip), vehicle: water 115 % of control | [1] 115 % of control | dose: 4.0 mg/kg/injection, schedule: Q01DX009 (ip), vehicle: water 112 % of control | [2] 115 % of control

N[C@@H](Cc1ccc(N(CCCl)CCCl)cc1)C(=O)O
inactive: dose: 0.2 mg/kg/injection, schedule: Q01DX009 (ip), vehicle: saline 102 % of control | dose: 0.4 mg/kg/injection, schedule: Q01DX009 (ip), vehicle: saline 100 % of control | dose: 0.6 mg/kg/injection, schedule: Q01DX009 (ip), vehicle: saline 100 % of control | dose: 0.8 mg/kg/injection, schedule: Q01DX009 (ip), vehicle: saline 111 % of control | [3] 105 % of control

CC1CCC(NC(=O)N(CCCl)N=O)CC1 (stereo not drawn)
inactive: dose: 0.5 mg/kg/injection, schedule: Q01DX009 (ip), vehicle: saline 100 % of control | [3] 93 % of control | dose: 2.0 mg/kg/injection, schedule: Q01DX001 (ip), vehicle: saline 88 % of control | dose: 2.0 mg/kg/injection, schedule: Q01DX009 (ip), vehicle: saline 95 % of control | dose: 4.0 mg/kg/injection, schedule: Q01DX001 (ip), vehicle: saline 90 % of control | dose: 4.0 mg/kg/injection, schedule: Q01DX009 (ip), vehicle: saline 107 % of control | dose: 8.0 mg/kg/injection, schedule: Q01DX001 (ip), vehicle: saline 93 % of control | dose: 8.0 mg/kg/injection, schedule: Q01DX009 (ip), vehicle: saline 115 % of control | dose: 16.0 mg/kg/injection, schedule: Q01DX001 (ip), vehicle: saline 100 % of control | dose: 32.0 mg/kg/injection, schedule: Q01DX001 (ip), vehicle: saline 106 % of control

S=P(N1CC1)(N1CC1)N1CC1
inactive: dose: 1.5 mg/kg/injection, schedule: Q01DX009 (ip), vehicle: water 110 % of control | dose: 2.5 mg/kg/injection, schedule: Q01DX009 (ip), vehicle: water 101 % of control | [1] 92 % of control | dose: 5.0 mg/kg/injection, schedule: Q01DX009 (ip), vehicle: water 109 % of control | [2] 105 % of control | dose: 10.0 mg/kg/injection, schedule: Q01DX009 (ip), vehicle: water 107 % of control | dose: 40.0 mg/kg/injection, schedule: Q01DX009 (ip), vehicle: water 110 % of control

O=CC(NC(=O)N(CCCl)N=O)C(O)C(O)C(O)CO (stereo not drawn)
inactive: dose: 5.0 mg/kg/injection, schedule: Q01DX001 (ip), vehicle: saline 108 % of control | dose: 8.4 mg/kg/injection, schedule: Q01DX001 (ip), vehicle: saline 106 % of control | dose: 14.0 mg/kg/injection, schedule: Q01DX001 (ip), vehicle: saline 105 % of control | dose: 23.0 mg/kg/injection, schedule: Q01DX001 (ip), vehicle: saline 96 % of control

CO[C@H]1/C=C/O[C@@]2(C)Oc3c(C)c(O)c4c(O)c(c(/C=N/N5C(C)CN(Cc6ccccc6)CC5C)c(O)c4c3C2=O)NC(=O)/C(C)=C\C=C\[C@H](C)[C@H](O)[C@@H](C)[C@@H](O)[C@@H](C)[C@H](OC(C)=O)[C@@H]1C (stereo partly drawn)
inactive: dose: 16.0 mg/kg/injection, schedule: Q03HX008 (ip), vehicle: saline 114 % of control | dose: 16.0 mg/kg/injection, schedule: Q03HX024 (ip), vehicle: saline 101 % of control | dose: 32.0 mg/kg/injection, schedule: Q03HX008 (ip), vehicle: saline 116 % of control | dose: 64.0 mg/kg/injection, schedule: Q01DX009 (ip), vehicle: saline 108 % of control | dose: 64.0 mg/kg/injection, schedule: Q03HX008 (ip), vehicle: saline 109 % of control | dose: 64.0 mg/kg/injection, schedule: Q04DX003 (ip), vehicle: saline 103 % of control | dose: 128.0 mg/kg/injection, schedule: Q01DX001 (ip), vehicle: saline 105 % of control | dose: 128.0 mg/kg/injection, schedule: Q04DX003 (ip), vehicle: saline 106 % of control | dose: 256.0 mg/kg/injection, schedule: Q01DX001 (ip), vehicle: saline 95 % of control

NC(=O)c1cn[nH]c1N
inactive: dose: 50.0 mg/kg/injection, schedule: Q01DX009 (ip), vehicle: other 97 % of control | dose: 100.0 mg/kg/injection, schedule: Q01DX009 (ip), vehicle: other 94 % of control | dose: 200.0 mg/kg/injection, schedule: Q01DX009 (ip), vehicle: other 92 % of control | dose: 400.0 mg/kg/injection, schedule: Q01DX009 (ip), vehicle: other 102 % of control

COc1cc2c(c(OC)c1OC)-c1ccc(OC)c(=O)cc1[C@@H](NC(C)=O)CC2
inactive: dose: 0.06 mg/kg/injection, schedule: Q01DX009 (ip), vehicle: water 100 % of control | dose: 0.12 mg/kg/injection, schedule: Q01DX009 (ip), vehicle: water 90 % of control | dose: 0.24 mg/kg/injection, schedule: Q01DX009 (ip), vehicle: water 100 % of control

OC(CBr)C(O)C(O)C(O)CBr (stereo not drawn)
inactive: dose: 25.0 mg/kg/injection, schedule: Q01DX009 (ip), vehicle: Klucel (hydroxypropylcellulose) (HPC) 94 % of control | dose: 50.0 mg/kg/injection, schedule: Q01DX009 (ip), vehicle: Klucel (hydroxypropylcellulose) (HPC) 123 % of control | dose: 100.0 mg/kg/injection, schedule: Q01DX009 (ip), vehicle: Klucel (hydroxypropylcellulose) (HPC) 117 % of control

Nc1n[nH]c(N)n1
inactive: dose: 300.0 mg/kg/injection, schedule: Q01DX009 (ip), vehicle: water 118 % of control | dose: 500.0 mg/kg/injection, schedule: Q01DX009 (ip), vehicle: water 118 % of control | dose: 600.0 mg/kg/injection, schedule: Q01DX009 (ip), vehicle: water 100 % of control

CSCS(=O)C[C@H](CO)NC(=O)/C=C/c1c(C)[nH]c(=O)[nH]c1=O (stereo partly drawn)
inactive: dose: 0.02 mg/kg/injection, schedule: Q01DX009 (ip), vehicle: water 89 % of control | dose: 0.05 mg/kg/injection, schedule: Q01DX009 (ip), vehicle: water 97 % of control | dose: 0.1 mg/kg/injection, schedule: Q01DX009 (ip), vehicle: water 91 % of control | dose: 0.2 mg/kg/injection, schedule: Q01DX009 (ip), vehicle: water 94 % of control

C/C(=N/N=C(N)N)c1ccc(NC(=O)Nc2ccc(/C(C)=N/N=C(N)N)cc2)cc1
inactive: dose: 25.0 mg/kg/injection, schedule: Q01DX009 (ip), vehicle: water 115 % of control | dose: 50.0 mg/kg/injection, schedule: Q01DX009 (ip), vehicle: water 106 % of control
